Molecules are shown by their SMILES. Changes are numbered by the printed parent chain.

The test system of one test is MGL (rat brain homogenate). The test can be described thus: 2-AG accumulation assay in rat brain homogenate. In kind it is biochemical. To be noted: compound 1 μM, percent of vehicle 2-AG accumulation. The method in brief:
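Rat brain homogenate was incubated with compound for 15 min at 37° C., after which CaCl2 was added to a final concentration of 10 mM and incubation continued for 15 min at 37° C. in 5 mL total. Reactions were stopped with 6 mL of 2:1 chloroform/methanol, and 2-AG accumulated in the organic phase was quantified by HPLC/MS.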
`O=C(c1ccc2c(c1)c(F)cn2-c1ccc(F)cc1)N1CC(N[C@H]2CCN(C(=O)c3ccccc3)C2)C1` [Cpd 142, (3S)-N-(1-{[3-Fluoro-1-(4-fluorophenyl)-1H-indol-5-yl]carbonyl}azetidin-3-yl)-1-(phenylcarbonyl)pyrrolidin-3-amine]: the “Rat Brain 2AG % VehCntrl (%) @1 μM” value is on record as 247%.

Another test concerns the target T1, purified mutant MGL (mut-MGLL 11-313 L179S L186S) (Homo sapiens, UniProt Q99685, L169S/L176S).
T1 construct: purified mutant MGL (mut-MGLL 11-313 L179S L186S)
T1 sequence (Q99685 1-303 L169S/L176S): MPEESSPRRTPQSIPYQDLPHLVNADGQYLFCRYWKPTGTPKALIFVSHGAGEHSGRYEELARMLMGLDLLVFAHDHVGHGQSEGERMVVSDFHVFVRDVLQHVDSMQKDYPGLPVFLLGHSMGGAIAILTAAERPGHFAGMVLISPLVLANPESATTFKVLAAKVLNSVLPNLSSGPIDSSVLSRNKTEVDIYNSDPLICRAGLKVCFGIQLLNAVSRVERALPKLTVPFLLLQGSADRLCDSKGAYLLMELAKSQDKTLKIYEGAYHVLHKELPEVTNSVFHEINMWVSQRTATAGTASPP
The test can be described thus: MGL enzyme activity assay (4MU-B cleavage), mutant MGL. Type of test: biochemical. To be noted: mutant MGL 5 nM, 4MU-B 10 μM, 37° C.; read-out: MGL mutant inh IC50. On the procedure:
All rate-based assays were performed in black 384-well polypropylene PCR microplates (Abgene) in a total volume of 30 μL. Substrate 4-methylumbelliferyl butyrate (4MU-B; Sigma) and either purified mutant MGL (mut-MGLL 11-313 L179S L186S) or purified wild type MGL (wt-MGLL 6H-11-313) were diluted separately into 20 mM PIPES buffer (pH=7.0), containing 150 mM NaCl and 0.001% Tween 20. Compounds of Formula (I) were pre-dispensed (50 nL) into the assay plate using a Cartesian Hummingbird prior to adding 4MU-B (25 μL of 1.2× solution to a final concentration of 10 μM) followed by enzyme (5 μL of a 6× solution to a final concentration of 5 nM) to initiate the reaction. Final compound concentrations ranged from 17 to 0.0003 μM. The fluorescence change due to 4MU-B cleavage was monitored with excitation and emission wavelengths of 335 and 440 nm, respectively, and a bandwidth of 10 nm (Safire^2, Tecan) at 37° C. for 5 min.
The IC50 values for the following compounds were determined using Microsoft Office Excel from a fit of the equation to the concentration-response plot of the fractional activity as a function of inhibitor concentration.
With `O=C(c1ccc(Cc2ccccc2)cc1)N1CC(N[C@@H]2CCN(C(=O)c3nccs3)C2)C1` [Cpd 6, (3R)-N-{1-[(4-Benzylphenyl)carbonyl]azetidin-3-yl}-1-(1,3-thiazol-2-ylcarbonyl)pyrrolidin-3-amine], the IC50 worked out at 490 nM.

Turning to `O=C(c1ccc(-c2ccc(C(F)(F)F)cc2)cc1)N1CC(N[C@H]2CCN(C(=O)c3ccccc3)C2)C1` [Cpd 35, (3S)-1-(Phenylcarbonyl)-N-(1-{[4′-(trifluoromethyl)biphenyl-4-yl]carbonyl}azetidin-3-yl)pyrrolidin-3-amine], the 50% inhibitory concentration (IC50) was determined as 158 nM.

As to `O=C(c1ccc(-c2cccc(C(F)(F)F)c2)cc1)N1CC(N[C@@H]2CN(C(=O)c3ccccc3)C[C@H]2O)C1` (relative stereo) [Cpd 72, trans-1-(Phenylcarbonyl)-4-[(1-{[3′-(trifluoromethyl)biphenyl-4-yl]carbonyl}azetidin-3-yl)amino]pyrrolidin-3-ol], the half-maximal inhibitory concentration (IC50) is 757 nM.

For `O=C(c1ccc(Cc2ccccc2)cc1)N1CC(N[C@@H]2CCN(C(=O)c3ccccc3)C2)C1` [Cpd 7, (3R)-N-{1-[(4-Benzylphenyl)carbonyl]azetidin-3-yl}-1-(phenylcarbonyl)pyrrolidin-3-amine], the IC50 was found to be 2060 nM.

Take `O=C(c1nccs1)N1CC[C@H](NC2CN(C(=O)N3Cc4ccc(-c5ccccc5)cc4C3)C2)C1` [Cpd 13, (3S)-N-{1-[(5-Phenyl-1,3-dihydro-2H-isoindol-2-yl)carbonyl]azetidin-3-yl}-1-(1,3-thiazol-2-ylcarbonyl)pyrrolidin-3-amine]: the half-inhibitory concentration (IC50) was determined as 720 nM.

Take `O=C(c1ccccc1)N1CCC(NC2CN(C(=O)c3ccc(C(F)c4ccc(C(F)(F)F)cc4)cc3)C2)C1` (stereo not drawn) [Cpd 69, N-{1-[(4-{Fluoro[4-(trifluoromethyl)phenyl]methyl}phenyl)carbonyl]azetidin-3-yl}-1-(phenylcarbonyl)pyrrolidin-3-amine]: the 50% inhibitory concentration (IC50) stood at 198 nM.

Consider `O=C(c1ccccc1)N1CC[C@H](NC2CN(C(=O)c3cc4cc(C(F)(F)F)ccc4s3)C2)C1` [Cpd 19, (3S)-1-(Phenylcarbonyl)-N-(1-{[5-(trifluoromethyl)-1-benzothiophen-2-yl]carbonyl}azetidin-3-yl)pyrrolidin-3-amine], for which the half-maximal inhibitory concentration (IC50) was found to be 361 nM.

With `O=C(c1ccc(-c2ccccc2)cc1)N1CC(N[C@H]2CCN(C(=O)c3nccs3)C2)C1` [Cpd 1, (3S)-N-[1-(Biphenyl-4-ylcarbonyl)azetidin-3-yl]-1-(1,3-thiazol-2-ylcarbonyl)pyrrolidin-3-amine], the IC50 was determined as 116 nM.

As for `O=C(c1ccc(-c2ccccc2)cc1)N1CC(N[C@H]2CCN(C(=O)c3cccc(F)c3)C2)C1` [Cpd 46, (3S)-N-[1-(Biphenyl-4-ylcarbonyl)azetidin-3-yl]-1-[(3-fluorophenyl)carbonyl]pyrrolidin-3-amine], the IC50 worked out at 336 nM.

As to `O=C(c1ccccc1)N1CC[C@H](NC2CN(C(=O)c3sc4ccccc4c3C3CC3)C2)C1` [Cpd 66, (3S)-N-{1-[(3-Cyclopropyl-1-benzothiophen-2-yl)carbonyl]azetidin-3-yl}-1-(phenylcarbonyl)pyrrolidin-3-amine], the concentration for half-maximal inhibition (IC50) was 214 nM.

With `O=C(c1ccc(-c2ccc(OC(F)(F)F)cc2)cc1)N1CC(N[C@H]2CCN(C(=O)c3ccccc3)C2)C1` [Cpd 36, (3S)-1-(Phenylcarbonyl)-N-(1-{[4′-(trifluoromethoxy)biphenyl-4-yl]carbonyl}azetidin-3-yl)pyrrolidin-3-amine], the concentration for half-maximal inhibition (IC50) stood at 189 nM.

Turning to `O=C(c1nccs1)N1CC[C@H](NC2CN(C(=O)N3CCc4cc(Br)ccc4C3)C2)C1` [Cpd 10, (S)-(3-((1-(6-Bromo-1,2,3,4-tetrahydroisoquinoline-2-carbonyl)azetidin-3-yl)amino)pyrrolidin-1-yl)(thiazol-2-yl)methanone], the half-inhibitory concentration (IC50) was found to be 2910 nM.

On to `O=C(c1ccc(-c2ccccc2)cc1)N1CC(N[C@H]2CCN(C(=O)c3cc4ccccc4s3)C2)C1` [Cpd 48, (3S)-1-(1-Benzothiophen-2-ylcarbonyl)-N-[1-(biphenyl-4-ylcarbonyl)azetidin-3-yl]pyrrolidin-3-amine], for which the IC50 was 8970 nM.

For `O=C(c1ccc(-c2ccccc2)cc1)N1CC(N[C@@H]2CN(C(=O)c3ccccc3)C[C@H]2O)C1` (relative stereo) [Cpd 78, trans-4-{[1-(Biphenyl-4-ylcarbonyl)azetidin-3-yl]amino}-1-(phenylcarbonyl)pyrrolidin-3-ol], the IC50 was found to be 13400 nM.

As for `O=C(c1ccc(-c2ccccc2)cc1)N1CC(N[C@H]2CCN(C(=O)c3ccc(F)cc3)C2)C1` [Cpd 45, (3S)-N-[1-(Biphenyl-4-ylcarbonyl)azetidin-3-yl]-1-[(4-fluorophenyl)carbonyl]pyrrolidin-3-amine], the IC50 stood at 1630 nM.

For the compound `O=C(c1ccc(-c2ccccc2)cc1)N1CC(N[C@H]2CCN(C(=O)c3ccccc3)C2)C1` [Cpd 2, (3S)-N-[1-(Biphenyl-4-ylcarbonyl)azetidin-3-yl]-1-(phenylcarbonyl)pyrrolidin-3-amine], the half-maximal inhibitory concentration (IC50) was 122 nM.

Consider `O=C(c1ccccc1)N1CC[C@H](NC2CN(C(=O)c3cc4ccc(Br)cc4s3)C2)C1` [Cpd 38, (3S)-N-{1-[(6-Bromo-1-benzothiophen-2-yl)carbonyl]azetidin-3-yl}-1-(phenylcarbonyl)pyrrolidin-3-amine], for which the half-maximal inhibitory concentration (IC50) came to 301 nM.

As to `O=C(c1nccs1)N1CC[C@H](NC2CN(C(=O)N3CCc4cc(-c5ccccc5)ccc4C3)C2)C1` [Cpd 11, (S)-(3-((1-(6-Phenyl-1,2,3,4-tetrahydroisoquinoline-2-carbonyl)azetidin-3-yl)amino)pyrrolidin-1-yl)(thiazol-2-yl)methanone], the IC50 amounted to 344 nM.

With `COC1CN(C(=O)c2ccccc2)CC1NC1CN(C(=O)c2ccc(-c3cccc(C(F)(F)F)c3)cc2)C1` (stereo not drawn) [Cpd 71, trans--4-Methoxy-1-(phenylcarbonyl)-N-(1-{[3′-(trifluoromethyl)biphenyl-4-yl]carbonyl}azetidin-3-yl)pyrrolidin-3-amine], the IC50 amounted to 5580 nM.

Regarding `O=C(c1ccc(-c2ccccc2)cc1)N1CC(N[C@H]2CCN(C(=O)c3cc4ccccc4o3)C2)C1` [Cpd 47, (3S)-1-(1-Benzofuran-2-ylcarbonyl)-N-[1-(biphenyl-4-ylcarbonyl)azetidin-3-yl]pyrrolidin-3-amine], the concentration for half-maximal inhibition (IC50) turned out to be 10900 nM.

Turning to `O=C(c1nccs1)N1CC[C@H](NC2CN(C(=O)N3Cc4ccc(Br)cc4C3)C2)C1` [Cpd 12, (3S)-N-{1-[(5-Bromo-1,3-dihydro-2H-isoindol-2-yl)carbonyl]azetidin-3-yl}-1-(1,3-thiazol-2-ylcarbonyl)pyrrolidin-3-amine], the IC50 is 6210 nM.

Regarding `O=C(c1ccc(-c2ccccc2)cc1)N1CC(N[C@@H]2CN(C(=O)c3ccccc3)CC2F)C1` (stereo partly drawn) [Cpd 60, (3R)-N-[1-(Biphenyl-4-ylcarbonyl)azetidin-3-yl]-4-fluoro-1-(phenylcarbonyl)pyrrolidin-3-amine], the IC50 is greater than 16700 nM.

The target in the next test is T2, purified wild type MGL (wt-MGLL 6H-11-313) (Homo sapiens, UniProt Q99685).
T2 construct: purified wild type MGL (wt-MGLL 6H-11-313)
T2 sequence (Q99685 1-303): T1 sequence (Q99685 1-303 L169S/L176S) with S169L, S176L
Kind of test: MGL enzyme activity assay (4MU-B cleavage), wild type MGL. In kind it is biochemical. The note with it: wild type MGL 5 nM, 4MU-B 10 μM, 37° C.; read-out: MGL wild type inh IC50. The method in brief:
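Enzyme in 20 mM PIPES pH 7.0, 150 mM NaCl, 0.001% Tween 20 with 4MU-B at 10 μM final and MGL at 5 nM final; compounds 17 to 0.0003 μM final, enzyme added last. Fluorescence (ex 335/em 440 nm) followed at 37° C for 5 min; IC50 from fit of fractional activity versus inhibitor concentration.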
Consider `O=C(c1ccc2c(c1)c(F)cn2-c1ccc(F)cc1)N1CC(N[C@H]2CCN(C(=O)c3ccccc3)C2)C1` [Cpd 142, (3S)-N-(1-{[3-Fluoro-1-(4-fluorophenyl)-1H-indol-5-yl]carbonyl}azetidin-3-yl)-1-(phenylcarbonyl)pyrrolidin-3-amine], for which the IC50 was 56.5 nM.

For the origin of these results see patent US8748417B2, “Amino-pyrrolidine-azetidine diamides as monoacylglycerol lipase inhibitors” (Janssen Pharmaceutica, NV, priority 2010, dated 2014).
